The values that follow come from patent US8168668B2, “Compounds” (AstraZeneca AB, priority 2005, dated 2012).

One may read the solubility as the concentration that dissolves in the medium under given conditions.

This data set is described as follows: aqueous solubility test. The following applies: aqueous medium, pH 7.4, aqueous buffer. The class given is physicochemical.

In brackets after ≈: the same amount, converted by molar mass.

`C[C@H](NC(=O)Cn1cnc2cccc([N+](=O)[O-])c21)c1ccc(OCCF)cc1` [Example 3, N-{(1S)-1-[4-(2-fluoroethoxy)phenyl]ethyl}-2-(7-nitro-1H-benzimidazol-1-yl)acetamide] had a solubility of 90 µM (≈ 34.8 µg/mL). Compound `CCOc1ccc([C@H](C)NC(=O)Cn2cnc3cccc([N+](=O)[O-])c32)cc1` [Example 6, N-[(1S)-1-(4-ethoxyphenyl)ethyl]-2-(7-nitro-1H-benzimidazol-1-yl)acetamide] showed a solubility of 72 µM (≈ 26.5 µg/mL). For `CC(NC(=O)Cn1cnc2cccc([N+](=O)[O-])c21)c1ccc(OCC(F)F)nc1` (stereo not drawn) [Example 9, N-{1-[6-(2,2-difluoroethoxy)pyridin-3-yl]ethyl}-2-(7-nitro-1H-benzimidazol-1-yl)acetamide], the concentration in solution (solubility) was 98 µM (≈ 39.7 µg/mL). `CC(NC(=O)Cn1cnc2cccc([N+](=O)[O-])c21)c1ccc(OCC(F)(F)F)cc1` (stereo not drawn) [Example 14, 2-(7-nitro-1H-benzimidazol-1-yl)-N-{1-[4-(2,2,2-trifluoroethoxy)phenyl]ethyl}acetamide] showed a solubility of 63 µM (≈ 26.6 µg/mL). Take `COCC(C)Oc1ccc([C@H](C)NC(=O)Cn2cnc3cccc([N+](=O)[O-])c32)cc1` (stereo partly drawn) [Example 5, N-{(1S)-1-[4-(2-methoxy-1-methylethoxy)phenyl]ethyl}-2-(7-nitro-1H-benzimidazol-1-yl)acetamide]: the solubility was found to be 97 µM (≈ 40 µg/mL). The figure for `CC(NC(=O)Cn1cnc2cccc([N+](=O)[O-])c21)c1ccc(C(F)(F)F)cn1` (stereo not drawn) [Example 30, 2-(7-nitro-1H-benzimidazol-1-yl)-N-{1-[5-(trifluoromethyl)pyridin-2-yl]ethyl}acetamide] is 97 µM (≈ 38.2 µg/mL). The figure for `CC(NC(=O)Cn1cnc2cccc([N+](=O)[O-])c21)c1ccc(OC2CCN(C)CC2)c(C(F)(F)F)c1` (stereo not drawn) [Example 46, N-{1-[4-[(1-Methylpiperidin-4-yl)oxy]-3-(trifluoromethyl)phenyl]ethyl}-2-(7-nitro-1H-benzimidazol-1-yl)acetamide] is 100 µM (≈ 50.5 µg/mL). On to `CC(NC(=O)Cn1cnc2cccc(Cl)c21)c1ncc(C(F)(F)F)cc1Cl` (stereo not drawn) [Example 31, 2-(7-chloro-1H-benzimidazol-1-yl)-N-{1-[3-chloro-5-(trifluoromethyl)pyridin-2-yl]ethyl}acetamide], for which the solubility was found to be 87 µM (≈ 36.3 µg/mL).

Consider `C#Cc1ccc(C(C)NC(=O)Cn2cnc3cccc([N+](=O)[O-])c32)cc1` (stereo not drawn) [Example 41, N-[1-(4-ethynylphenyl)ethyl]-2-(7-nitro-1H-benzimidazol-1-yl)acetamide], for which the solubility amounted to 82 µM (≈ 28.6 µg/mL). `CC(NC(=O)Cn1cnc2cccc(C#N)c21)c1ccc(OC(CF)CF)cc1` (stereo not drawn) [Example 24, 2-(7-cyano-1H-benzimidazol-1-yl)-N-(1-{4-[2-fluoro-1-(fluoromethyl)ethoxy]phenyl}ethyl)acetamide] registered a solubility of 94 µM (≈ 37.5 µg/mL). The figure for `CC(NC(=O)Cn1cnc2cccc([N+](=O)[O-])c21)c1ccc(OCC(F)F)cc1` (stereo not drawn) [Example 19, N-{1-[4-(2,2-difluoroethoxy)phenyl]ethyl}-2-(7-nitro-1H-benzimidazol-1-yl)acetamide] is 75 µM (≈ 30.3 µg/mL); for `CC(C)Oc1ccc(C(C)NC(=O)Cn2cnc3cccc(Cl)c32)cn1` (stereo not drawn) [Example 35, 2-(7-chloro-1H-benzimidazol-1-yl)-N-[1-(6-isopropoxypyridin-3-yl)ethyl]acetamide] it is 100 µM (≈ 37.3 µg/mL). As for `C#Cc1ccc(C(C)NC(=O)Cn2cnc3cccc(Cl)c32)cc1` (stereo not drawn) [Example 42, 2-(7-chloro-1H-benzimidazol-1-yl)-N-[1-(4-ethynylphenyl)ethyl]acetamide], the figure is 77 µM (≈ 26 µg/mL); as for `CCC(NC(=O)Cn1cnc2cccc([N+](=O)[O-])c21)c1ccc(C(F)(F)F)cn1` (stereo not drawn) [Example 29, 2-(7-nitro-1H-benzimidazol-1-yl)-N-{1-[5-(trifluoromethyl)pyridin-2-yl]propyl}acetamide], 92 µM (≈ 37.5 µg/mL); as for `CC(NC(=O)Cn1cnc2cccc([N+](=O)[O-])c21)c1ncc(C(F)(F)F)cc1Cl` (stereo not drawn) [Example 32, N-{1-[3-chloro-5-(trifluoromethyl)pyridin-2-yl]ethyl}-2-(7-nitro-1H-benzimidazol-1-yl)acetamide], 87 µM (≈ 37.2 µg/mL).
